Reference: the NIST ThermoML archive (doi:10.1016/j.jct.2017.10.002)
Values joined by “and” are separate entries in the source; they are usually repeats but may differ in a detail not shown here. Equal entries are not always repeated.

Experiment: molar heat capacity at constant pressure
Settings: 101.33 kPa, relaxation calorimetry

CCc1ncc[n-]1.CCc1ncc[n-]1.[Zn+2] [zinc(II) 2-ethylimidazolide]
molar heat capacity at constant pressure
Settings	Crystal	Glass
1 K	–	0.01063 J/K/mol
1.832 K	0.0493 J/K/mol	–
1.836 K	0.01638 J/K/mol	–
1.837 K	0.04503 J/K/mol	–
1.839 K	–	0.03581 J/K/mol
1.88 K	0.05213 J/K/mol	–
1.914 K	0.04977 J/K/mol	–
1.915 K	–	0.04142 J/K/mol
1.916 K	0.0188 J/K/mol	–
1.932 K	0.05559 J/K/mol	–
1.989 K	0.0603 J/K/mol	–
2 K	0.0589 J/K/mol [middle of 4 runs]	0.04827 J/K/mol
2.001 K	–	0.04687 J/K/mol
2.005 K	0.02171 J/K/mol	–
2.051 K	0.06589 J/K/mol	–
2.09 K	0.06722 J/K/mol	–
2.091 K	–	0.05348 J/K/mol
2.099 K	0.02469 J/K/mol	–
2.118 K	0.07352 J/K/mol	–
2.183 K	0.07697 J/K/mol	–
2.184 K	–	0.06212 J/K/mol
2.19 K	0.08177 J/K/mol	–
2.197 K	0.02817 J/K/mol	–
2.265 K	0.0916 J/K/mol	–
2.283 K	0.08765 J/K/mol	–
2.285 K	–	0.07138 J/K/mol
2.301 K	0.03272 J/K/mol	–
2.346 K	0.1035 J/K/mol	–
2.41 K	0.03888 J/K/mol	–
2.411 K	0.1031 J/K/mol	–
2.417 K	–	0.08449 J/K/mol
2.488 K	0.1258 J/K/mol	–
2.509 K	–	0.09566 J/K/mol
2.512 K	0.1183 J/K/mol	–
2.516 K	0.04352 J/K/mol	–
2.61 K	0.1475 J/K/mol	–
2.615 K	0.135 J/K/mol	–
2.639 K	0.0517 J/K/mol	–
2.646 K	–	0.1124 J/K/mol
2.733 K	0.1558 J/K/mol	–
2.738 K	–	0.1254 J/K/mol
2.739 K	0.1709 J/K/mol	–
2.744 K	0.0566 J/K/mol	–
2.854 K	0.06599 J/K/mol	–
2.858 K	0.194 J/K/mol	–
2.86 K	0.1727 J/K/mol	–
2.868 K	–	0.1481 J/K/mol
2.979 K	0.1934 J/K/mol	–
2.986 K	0.2216 J/K/mol	0.1712 J/K/mol
2.992 K	0.07481 J/K/mol	–
3 K	0.2257 J/K/mol and 0.076 J/K/mol and 0.2038 J/K/mol	0.168 J/K/mol
3.106 K	0.08446 J/K/mol	–
3.109 K	0.2254 J/K/mol	–
3.118 K	0.2529 J/K/mol	–
3.122 K	–	0.1906 J/K/mol
3.246 K	0.09833 J/K/mol	–
3.248 K	0.2525 J/K/mol	–
3.259 K	0.2898 J/K/mol	–
3.264 K	–	0.2232 J/K/mol
3.388 K	0.2988 J/K/mol	–
3.395 K	0.1127 J/K/mol	–
3.397 K	–	0.2534 J/K/mol
3.407 K	0.3327 J/K/mol	–
3.536 K	0.3331 J/K/mol	–
3.537 K	0.1275 J/K/mol	–
3.551 K	–	0.2838 J/K/mol
3.562 K	0.381 J/K/mol	–
3.691 K	0.3887 J/K/mol	–
3.692 K	0.1432 J/K/mol	–
3.699 K	–	0.3307 J/K/mol
3.737 K	0.4416 J/K/mol	–
3.853 K	0.4343 J/K/mol and 0.1693 J/K/mol	–
3.861 K	–	0.3658 J/K/mol
3.916 K	0.5079 J/K/mol	–
4 K	0.5386 J/K/mol and 0.1872 J/K/mol and 0.4762 J/K/mol	0.4158 J/K/mol
4.023 K	0.1911 J/K/mol	–
4.024 K	0.4906 J/K/mol	–
4.033 K	–	0.4343 J/K/mol
4.093 K	0.5776 J/K/mol	–
4.203 K	0.2234 J/K/mol	–
4.204 K	0.5288 J/K/mol	–
4.213 K	–	0.4859 J/K/mol
4.288 K	0.6588 J/K/mol	–
4.385 K	0.6193 J/K/mol	–
4.39 K	0.2481 J/K/mol	–
4.397 K	–	0.5485 J/K/mol
4.475 K	0.7416 J/K/mol	–
4.577 K	0.2815 J/K/mol	–
4.58 K	0.6992 J/K/mol	–
4.588 K	–	0.6228 J/K/mol
4.673 K	0.833 J/K/mol	–
4.782 K	0.3148 J/K/mol	–
4.784 K	0.7873 J/K/mol	–
4.797 K	–	0.7076 J/K/mol
4.885 K	0.9362 J/K/mol	–
4.995 K	0.8682 J/K/mol and 0.3599 J/K/mol	–
5 K	0.9962 J/K/mol and 0.3674 J/K/mol and 0.8773 J/K/mol	0.8029 J/K/mol
5.008 K	–	0.8138 J/K/mol
5.104 K	1.051 J/K/mol	–
5.217 K	0.968 J/K/mol and 0.4058 J/K/mol	–
5.228 K	–	0.8928 J/K/mol
5.341 K	1.18 J/K/mol	–
5.447 K	1.121 J/K/mol	–
5.449 K	0.4865 J/K/mol	–
